Results on eleven molecules are retold here after US9650340B2, “5-fluoro-N-(pyridin-2-yl)pyridin-2-amine derivatives containing a sulfoximine group” (BAYER PHARMA AKTIENGESELLSCHAFT, priority 2012, dated 2017).

Experiment [1] addresses T1, CDK2/CycE (Homo sapiens, UniProt P24941).
T1 construct: GST; purchased ProQinase GmbH (Freiburg, Germany); host or cells: insect cells (Sf9)
Nature of the experiment: CDK2/CycE kinase assay (TR-FRET, 10 μM ATP). The experiment is classed as biochemical. The note with it: Method 2 (2a). An excerpt:
2a. CDK2/CycE Kinase Assay:
CDK2/CycE-inhibitory activity of compounds of the present invention was quantified employing the CDK2/CycE TR-FRET assay as described in the following paragraphs:
Recombinant fusion proteins of GST and human CDK2 and of GST and human CycE, expressed in insect cells (Sf9) and purified by Glutathion-Sepharose affinity chromatography, were purchased from ProQinase GmbH (Freiburg, Germany). As substrate for the kinase reaction biotinylated peptide biotin-Ttds-[…] (C-terminus in amid form) was used which can be purchased e.g. form the company JERINI Peptide Technologies (Berlin, Germany).
For the assay 50 nl of a 100 fold concentrated solution of the test compound in DMSO was pipetted into a black low volume 384 well microtiter plate (Greiner Bio-One, Frickenhausen, Germany), 2 μl of a solution of CDK2/CycE in aqueous assay buffer [50 mM Tris/HCl pH 8.0, 10 mM MgCl2, 1.0 mM dithiothreitol, 0.1 mM sodium ortho-vanadate, 0.01% (v/v) Nonidet-P40 (Sigma)] were added and the mixture was incubated for 15 min at 22° C. to allow pre-binding of the test compounds to the enzyme before the start of the kinase reaction. Then the kinase reaction was started by the addition of 3 μl of a solution of adenosine-tri-phosphate (ATP, 16.7 μM=>final conc. in the 5 μl assay volume is 10 μM) and substrate (1.25 μM=>final conc. in the 5 μl assay volume is 0.75 μM) in assay buffer and the resulting mixture was incubated for a reaction time of 25 min at 22° C. The concentration of CDK2/CycE was adjusted depending of the activity of the enzyme lot and was chosen appropriate to have the assay in the linear range, typical concentrations were in the range of 130 ng/mL The reaction was stopped by the addition of 5 μl of a solution of TR-FRET detection reagents (0.2 μM streptavidine-XL665 [Cisbio Bioassays, Codolet, France] and 1 nM anti-RB(pSer807/pSer811)-antibody from BD Pharmingen [#558389] and 1.2 nM LANCE EU-W1024 labeled anti-mouse IgG antibody [Perkin-Elmer, product no. AD0077]) in an aqueous EDTA-solution (100 mM EDTA, 0.2% (w/v) bovine serum albumin in 100 mM HEPES/NaOH pH 7.0).
The resulting mixture was incubated 1 h at 22° C. to allow the formation of complex between the phosphorylated biotinylated peptide and the detection reagents. Subsequently the amount of phosphorylated substrate was evaluated by measurement of the resonance energy transfer from the Eu-chelate to the streptavidine-XL. Therefore, the fluorescence emissions at 620 nm and 665 nm after excitation at 350 nm was measured in a TR-FRET reader, e.g. a Rubystar (BMG Labtechnologies, Offenburg, Germany) or a Viewlux (Perkin-Elmer). The ratio of the emissions at 665 nm and at 622 nm was taken as the measure for the amount of phosphorylated substrate.

For experiment [2], the system named is Caco-2, human colorectal carcinoma cells. Nature of the experiment: Proliferation assay, Caco-2 (crystal violet). The experiment is classed as cell-based. The following applies: Caco-2, 4 days, read-out: Inhibition of Caco-2 cell proliferation IC50. Here is the method: (§1) Cultivated tumour cells (HeLa, human cervical tumour cells, ATCC CCL-2; NCI-H460, human non-small cell lung carcinoma cells, ATCC HTB-177; A2780, human ovarian carcinoma cells, ECACC #93112519; DU 145, hormone-independent human prostate carcinoma cells, ATCC HTB-81; HeLa-MaTu-ADR, multidrug-resistant human cervical carcinoma cells, EPO-GmbH Berlin; Caco-2, human colorectal carcinoma cells, ATCC HTB-37; B16F10, mouse melanoma cells, ATCC CRL-6475) were plated at a density of 5,000 cells/well (DU145, HeLa-MaTu-ADR), 3,000 cells/well (NCI-H460, HeLa), 2,500 cells/well (A2780), 1,500 cells/well (Caco-2), or 1,000 cells/well (B16F10) in a 96-well multititer plate in 200 μL of their respective growth medium supplemented 10% fetal calf serum. After 24 hours, the cells of one plate (zero-point plate) were stained with crystal violet (see below), while the medium of the other plates was replaced by fresh culture medium (200 μl), to which the test substances were added in various concentrations (0 μM, as well as in the range of 0.001-10 μM; the final concentration of the solvent dimethyl sulfoxide was 0.5%). The cells were incubated for 4 days in the presence of test substances. Cell proliferation was determined by staining the cells with crystal violet: the cells were fixed by adding 20 μl/measuring point of an 11% glutaric aldehyde solution for 15 minutes at room temperature. After three washing cycles of the fixed cells with water, the plates were dried at room temperature. The cells were stained by adding 100 μl/measuring point of a 0.1% crystal violet solution (pH 3.0). After three washing cycles of the stained cells with water, the plates were dried at room temperature. The dye was dissolved by adding 100 μl/measuring point of a 10% acetic acid solution. The extinction was determined by photometry at a wavelength of 595 nm. The change of cell number, in percent, was calculated by normalization of the measured values to the extinction values of the zero-point plate (=0%) and the extinction of the untreated (0 μm) cells (=100%). The IC50 values (inhibitory concentration at 50% of maximal effect) were determined by means of a 4 parameter fit. Non-adherent MOLM-13 human acute myeloid leukemia cells (DSMZ ACC 554) were seeded at a density of 5,000 cells/well in a 96-well multititer plate in 100 μL of growth medium supplemented 10% fetal calf serum. After 24 hours, cell viability of one plate (zero-point plate) was determined with the Cell Titre-Glo Luminescent Cell Viability Assay (Promega), while 50 μL of test compound containing medium was added to the wells of the other plates (final concentrations in the range of 0.001-10 μM and DMSO controls; the final concentration of the solvent dimethyl sulfoxide was 0.5%). Cell viability was assessed after 72-hour exposure with the Cell Titre-Glo Luminescent Cell Viability Assay (Promega).

Experiment [3] has as its system B16F10, mouse melanoma cells. In words: Proliferation assay, B16F10 (crystal violet). The experiment is classed as cell-based. The following applies: B16F10, 4 days, read-out: Inhibition of B16F10 cell proliferation IC50. Here is the method:
as §1

The subject of experiment [4] is HeLa-MaTu-ADR, multidrug-resistant human cervical carcinoma cells. In words: Proliferation assay, HeLa-MaTu-ADR (crystal violet). The experiment is classed as cell-based. The note with it: 4 days, read-out: Inhibition of HeLa-MaTu-ADR cell proliferation IC50. As for the experimental part:
as §1

Like-named read-outs stand apart in the source and are kept apart here.

As to `COc1cc(F)ccc1-c1cc(Nc2cc(CS(C)(=N)=O)c(Br)c(C)n2)ncc1F` (racemic) [Example 5, (rac)-5-Bromo-N-[5-fluoro-4-(4-fluoro-2-methoxyphenyl)pyridin-2-yl]-6-methyl-4-[(S-methylsulfonimidoyl)methyl]pyridin-2-amine], the IC50 amounted to 140 nM in experiment [1]; 110 nM in experiment [2] (Homo sapiens, Caco-2, 96 h); 120 nM in experiment [3] (Mus musculus, B16-F10, 96 h).

Turning to `CCOC(=O)N=S(C)(=O)Cc1cc(Nc2cc(-c3ccc(F)cc3OC)c(F)cn2)nc(OC)c1` (racemic) [Example 15, (rac)-ethyl{[(2-{[5-fluoro-4-(4-fluoro-2-methoxyphenyl)pyridin-2-yl]amino}-6-methoxypyridin-4-yl)methyl](methyl)oxido-λ^6-sulfanylidene}carbamate], the IC50 stood at 10 nM in experiment [1]; 31 nM in experiment [4] (Homo sapiens, 96 h); 39 nM in experiment [2] (Homo sapiens, Caco-2, 96 h); 45 nM in experiment [3] (Mus musculus, B16-F10, 96 h).

As to `COc1cc(F)ccc1-c1cc(Nc2cc(CS(C)(=O)=NC(=O)C(F)(F)F)cc(F)n2)ncc1F` (racemic) [Example 18, (rac)-2,2,2-Trifluoro-N-{[(2-fluoro-6-{[5-fluoro-4-(4-fluoro-2-methoxyphenyl)pyridin-2-yl]amino}pyridin-4-yl)methyl](methyl)oxido-λ^6-sulfanylidene}acetamide], the IC50 in experiment [1] came to 39 nM; in experiment [4] (Homo sapiens, 96 h), 35 nM; in experiment [2] (Homo sapiens, Caco-2, 96 h), 43 nM; in experiment [3] (Mus musculus, B16-F10, 96 h), 68 nM.

For `CCOc1cc(F)ccc1-c1cc(Nc2cc(CS(C)(=O)=NC(=O)C(F)(F)F)cc(F)n2)ncc1F` (racemic) [Example 27, (rac)-N-{[(2-{[4-(2-Ethoxy-4-fluoro-phenyl)-5-fluoropyridin-2-yl]amino}-6-fluoropyridin-4-yl)methyl]-(methyl)oxido-λ^6-sulfanylidene}-2,2,2-trifluoroacetamide], the IC50 in experiment [1] is 1200 nM; in experiment [4] (Homo sapiens, 96 h), 110 nM; in experiment [2] (Homo sapiens, Caco-2, 96 h) it was 130 nM; in experiment [3] (Mus musculus, B16-F10, 96 h), 150 nM.

Turning to `CCS(=N)(=O)Cc1ccnc(Nc2cc(-c3ccc(F)cc3OC)c(F)cn2)c1` (racemic) [Example 30, (rac)-N-{4-[(S-Ethylsulfonimidoyl)-methyl]pyridin-2-yl}-5-fluoro-4-(4-fluoro-2-methoxyphenyl)pyridin-2-amine], the IC50 in experiment [1] came out at 210 nM; in experiment [4] (Homo sapiens, 96 h), 74 nM; in experiment [2] (Homo sapiens, Caco-2, 96 h), 52 nM; in experiment [3] (Mus musculus, B16-F10, 96 h), 120 nM.

In experiment [1], `COc1cc(F)ccc1-c1cc(Nc2cc(CS(C)(=N)=O)cc(C(F)F)n2)ncc1F` (racemic) [Example 31, (rac)-N-{6-(Difluoromethyl)-4-[(S-methylsulfonimidoyl)methyl]pyridin-2-yl}-5-fluoro-4-(4-fluoro-2-methoxyphenyl)pyridin-2-amine] came in with an IC50 of 10 nM.

On to `COc1cc(F)ccc1-c1cc(Nc2cc(CS(C)(=N)=O)cc(F)n2)ncc1F` (single isomer, unassigned; (+)) [Example 19, (+)-5-Fluoro-4-(4-fluoro-2-methoxyphenyl)-N-{6-fluoro-4-[(S-methylsulfonimidoyl)methyl]pyridin-2-yl}pyridin-2-amine], for which the IC50 in experiment [1] was determined as 94 nM; in experiment [4] (Homo sapiens, 96 h), 64 nM; in experiment [3] (Mus musculus, B16-F10, 96 h), 95 nM.

On to `COc1cc(F)ccc1-c1cc(Nc2cc(CS(C)(=O)=NC(=O)C(F)(F)F)cc(C(F)(F)F)n2)ncc1F` (single isomer, unassigned; (+)) [Example 24, (+)-2,2,2-Trifluoro-N-[{[2-{[5-fluoro-4-(4-fluoro-2-methoxyphenyl)pyridin-2-yl]amino}-6-(trifluoromethyl)-pyridin-4-yl]methyl}(methyl)oxido-λ^6-sulfanylidene]acetamide], for which the IC50 was 250 nM in experiment [1]; 30 nM in experiment [4] (Homo sapiens, 96 h); 41 nM in experiment [2] (Homo sapiens, Caco-2, 96 h); 43 nM in experiment [3] (Mus musculus, B16-F10, 96 h).

On to `CCOc1cc(F)ccc1-c1cc(Nc2cc(CS(C)(=N)=O)cc(F)n2)ncc1F` (single isomer, unassigned; (+)) [Example 28, (+)-4-(2-Ethoxy-4-fluorophenyl)-5-fluoro-N-{6-fluoro-4-[(S-methylsulfonimidoyl)methyl]pyridin-2-yl}pyridin-2-amine], for which the IC50 in experiment [1] came out at 120 nM; in experiment [4] (Homo sapiens, 96 h) it was 120 nM; in experiment [2] (Homo sapiens, Caco-2, 96 h), 120 nM; in experiment [3] (Mus musculus, B16-F10, 96 h), 150 nM.

Regarding `COc1cc(F)ccc1-c1cc(Nc2cc(CS(C)(=N)=O)cc(F)n2)ncc1F` (single isomer, unassigned; (-)) [Example 20, (−)-5-Fluoro-4-(4-fluoro-2-methoxyphenyl)-N-{6-fluoro-4-[(S-methylsulfonimidoyl)methyl]pyridin-2-yl}pyridin-2-amine], the IC50 in experiment [1] came to 72 nM; in experiment [4], 38 nM; in experiment [2] (Homo sapiens, Caco-2, 96 h) it was 45 nM; in experiment [3] it was 54 nM.

Take `COc1cc(F)ccc1-c1cc(Nc2cc(CS(C)(=O)=NC(=O)C(F)(F)F)cc(C(F)(F)F)n2)ncc1F` (single isomer, unassigned; (-)) [Example 25, (−)-2,2,2-Trifluoro-N-[{[2-{[5-fluoro-4-(4-fluoro-2-methoxyphenyl)pyridin-2-yl]amino}-6-(trifluoromethyl)-pyridin-4-yl]methyl}(methyl)oxido-λ^6-sulfanylidene]acetamide]: the IC50 in experiment [1] was determined as 110 nM; in experiment [4] it was 30 nM; in experiment [2], 45 nM; in experiment [3], 50 nM.
